Assay results as given in patent publication US20160235727A1, “NOVEL PYRROLIDINE DERIVED BETA 3 ADRENERGIC RECEPTOR AGONISTS” (Merck Sharp & Dohme Corp., priority 2013, published 2016).
Read-outs that look alike come from different tables or passages of the source.

Target: T1, human β3-AR (Homo sapiens, UniProt P13945)
T1 construct: expressed in transfected cells; host or cells: CHO (Chinese hamster ovary) cells, stably transfected
Test: cAMP functional agonist assay (LANCE TR-FRET) in CHO cells expressing cloned human β3-AR
Assay type: cell-based
Conditions: for Human β3-AR Agonist Activity (%): percent maximum activation relative to isoproterenol; for Fold drop in potency vs. 2-chloropyridine analog: EC50 of comparative example divided by EC50 of corresponding 2-chloropyridine compound

[1] = CHO cells stably expressing cloned human β3-adrenoceptor, cAMP release, read-out: Human β3-AR Agonism EC50

T1 sequence (P13945 whole entry): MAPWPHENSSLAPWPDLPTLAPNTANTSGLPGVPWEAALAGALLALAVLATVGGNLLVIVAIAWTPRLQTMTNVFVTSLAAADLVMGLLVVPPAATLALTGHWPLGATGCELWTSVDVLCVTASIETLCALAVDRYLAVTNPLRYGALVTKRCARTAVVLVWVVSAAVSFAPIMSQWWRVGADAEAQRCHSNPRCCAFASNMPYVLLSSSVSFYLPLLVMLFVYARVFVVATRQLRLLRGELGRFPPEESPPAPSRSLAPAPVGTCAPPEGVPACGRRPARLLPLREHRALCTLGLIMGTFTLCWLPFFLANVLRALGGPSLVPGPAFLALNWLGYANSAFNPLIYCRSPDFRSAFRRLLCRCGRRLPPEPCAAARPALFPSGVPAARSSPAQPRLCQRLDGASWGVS

| SMILES | EC50 [nM] | Human β3-AR Agonist Activity (%) | EC50 [1] [nM] | Fold drop in potency vs. 2-chloropyridine analog [fold] |
| --- | --- | --- | --- | --- |
| CC(c1cccnc1)N(C)C(=O)c1ccc(C[C@@H]2CC[C@H]([C@H](O)c3ccc(Cl)nc3)N2)cc1 (stereo partly drawn) [Example 23-A, 4-(((2S,5R)-5-((R)-(6-chloropyridin-3-yl)(hydroxy)methyl)pyrrolidin-2-yl)methyl)-N-methyl-N-(1-(pyridin-3-yl)ethyl)benzamide] | 2 | 96 | – | – |
| CC(c1cccnc1)N(C)C(=O)c1ccc(C[C@@H]2CC[C@H]([C@H](O)c3ccccc3)N2)cc1 (stereo partly drawn) [Example 23-B, 4-(((2S,5R)-5-((R)-hydroxy(phenyl)methyl)pyrrolidin-2-yl)methyl)-N-methyl-N-(1-(pyridin-3-yl)ethyl)benzamide] | – | 93 | 3 | 1.5 |
| CN(C(=O)c1ccc(C[C@@H]2CC[C@H]([C@H](O)c3ccc(Cl)nc3)N2)cc1)C1CCc2ncccc21 (stereo partly drawn) [Example 24-A, 4-(((2S,5R)-5-((R)-(6-chloropyridin-3-yl)(hydroxy)methyl)pyrrolidin-2-yl)methyl)-N-(6,7-dihydro-5H-cyclopenta[b]pyridin-5-yl)-N-methylbenzamide] | – | 98 | 42 | – |
| CN(C(=O)c1ccc(C[C@@H]2CC[C@H]([C@H](O)c3ccccc3)N2)cc1)C1CCc2ncccc21 (stereo partly drawn) [Example 24-B, N-(6,7-dihydro-5H-cyclopenta[b]pyridin-5-yl)-4-(((2S,5R)-5-((R)-hydroxy(phenyl)methyl)pyrrolidin-2-yl)methyl)-N-methylbenzamide] | – | 106 | 229 | 5.4 |
| COc1ncccc1CN(C)C(=O)c1ccc(C[C@@H]2CC[C@H]([C@H](O)c3ccc(Cl)nc3)N2)cc1 [Example 25-A, 4-(((2S,5R)-5-((R)-(6-chloropyridin-3-yl)(hydroxy)methyl)pyrrolidin-2-yl)methyl)-N-((2-methoxypyridin-3-yl)methyl)-N-methylbenzamide] | – | 98 | 18 | – |
| COc1ncccc1CN(C)C(=O)c1ccc(C[C@@H]2CC[C@H]([C@H](O)c3ccccc3)N2)cc1 [Example 25-B, 4-(((2S,5R)-5-((R)-hydroxy(phenyl)methyl)pyrrolidin-2-yl)methyl)-N-((2-methoxypyridin-3-yl)methyl)-N-methylbenzamide] | – | 96 | 109 | 6.0 |
| CN(Cc1cccnc1F)C(=O)c1ccc(C[C@@H]2CC[C@H]([C@H](O)c3ccc(Cl)nc3)N2)cc1 [Example 26-A, 4-(((2S,5R)-5-((R)-(6-chloropyridin-3-yl)(hydroxy)methyl)pyrrolidin-2-yl)methyl)-N-((2-fluoropyridin-3-yl)methyl)-N-methylbenzamide] | – | 97 | 35 | – |
| CN(Cc1cccnc1F)C(=O)c1ccc(C[C@@H]2CC[C@H]([C@H](O)c3cccc(F)c3)N2)cc1 [Example 26-C, 4-(((2S,5R)-5-((R)-(3-fluorophenyl)(hydroxy)methyl)pyrrolidin-2-yl)methyl)-N-((2-fluoropyridin-3-yl)methyl)-N-methylbenzamide] | – | 98 | 143 | 4.1 |
| CN(Cc1cccnc1F)C(=O)c1ccc(C[C@@H]2CC[C@H]([C@H](O)c3ccc(F)cc3)N2)cc1 [Example 26-F, 4-(((2S,5R)-5-((R)-(4-fluorophenyl)(hydroxy)methyl)pyrrolidin-2-yl)methyl)-N-((2-fluoropyridin-3-yl)methyl)-N-methylbenzamide] | – | 93 | 136 | 3.9 |
| CN(Cc1cccnc1F)C(=O)c1ccc(C[C@@H]2CC[C@H]([C@H](O)c3cccnc3)N2)cc1 [Example 26-H, N-((2-fluoropyridin-3-yl)methyl)-4-(((2S,5R)-5-((R)-hydroxy(pyridin-3-yl)methyl)pyrrolidin-2-yl)methyl)-N-methylbenzamide] | – | 96 | 397 | 11.3 |
| O=C(c1ccc(C[C@@H]2CC[C@H]([C@H](O)c3ccc(Cl)nc3)N2)cc1)N(CCO)Cc1cccnc1F [Example 27-A, 4-(((2S,5R)-5-((R)-(6-chloropyridin-3-yl)(hydroxy)methyl)pyrrolidin-2-yl)methyl)-N-((2-fluoropyridin-3-yl)methyl)-N-(2-hydroxyethyl)benzamide] | – | 57 | 5 | – |
| O=C(c1ccc(C[C@@H]2CC[C@H]([C@H](O)c3cccnc3)N2)cc1)N(CCO)Cc1cccnc1F [Example 27-H, N-((2-fluoropyridin-3-yl)methyl)-4-(((2S,5R)-5-((R)-hydroxy(pyridin-3-yl)methyl)pyrrolidin-2-yl)methyl)-N-(2-hydroxyethyl)benzamide] | – | 78 | 1390 | 288.6 |
| CN(Cc1ccc(=O)[nH]c1)C(=O)c1ccc(C[C@@H]2CC[C@H]([C@H](O)c3ccc(Cl)nc3)N2)cc1 [Example 28-A, 4-(((2S,5R)-5-((R)-(6-chloropyridin-3-yl)(hydroxy)methyl)pyrrolidin-2-yl)methyl)-N-methyl-N-((6-oxo-1,6-dihydropyridin-3-yl)methyl)benzamide] | – | 87 | 175 | – |
| CN(Cc1ccc(=O)[nH]c1)C(=O)c1ccc(C[C@@H]2CC[C@H]([C@H](O)c3cccc(F)c3)N2)cc1 [Example 28-C, 4-(((2S,5R)-5-((R)-(3-fluorophenyl)(hydroxy)methyl)pyrrolidin-2-yl)methyl)-N-methyl-N-((6-oxo-1,6-dihydropyridin-3-yl)methyl)benzamide] | – | 78 | 816 | 4.7 |
| CN(Cc1ccc(=O)[nH]c1)C(=O)c1ccc(C[C@@H]2CC[C@H]([C@H](O)c3ccc(F)cc3)N2)cc1 [Example 28-F, 4-(((2S,5R)-5-((R)-(4-fluorophenyl)(hydroxy)methyl)pyrrolidin-2-yl)methyl)-N-methyl-N-((6-oxo-1,6-dihydropyridin-3-yl)methyl)benzamide] | – | 88 | 732 | 4.2 |
| COc1ccc(CN(C)C(=O)c2ccc(C[C@@H]3CC[C@H]([C@H](O)c4ccc(Cl)nc4)N3)cc2)cn1 [Example 29-A, 4-(((2S,5R)-5-((R)-(6-chloropyridin-3-yl)(hydroxy)methyl)pyrrolidin-2-yl)methyl)-N-((6-methoxypyridin-3-yl)methyl)-N-methylbenzamide] | – | 94 | 17 | – |
| COc1ccc(CN(C)C(=O)c2ccc(C[C@@H]3CC[C@H]([C@H](O)c4ccccc4)N3)cc2)cn1 [Example 29-B, 4-(((2S,5R)-5-((R)-hydroxy(phenyl)methyl)pyrrolidin-2-yl)methyl)-N-((6-methoxypyridin-3-yl)methyl)-N-methylbenzamide] | – | 99 | 86 | 5.1 |
| CN(Cc1ccc(Cl)nc1)C(=O)c1ccc(C[C@@H]2CC[C@H]([C@H](O)c3ccc(Cl)nc3)N2)cc1 [Example 30-A, 4-(((2S,5R)-5-((R)-(6-chloropyridin-3-yl)(hydroxy)methyl)pyrrolidin-2-yl)methyl)-N-((6-chloropyridin-3-yl)methyl)-N-methylbenzamide] | – | 99 | 3 | – |
| CN(Cc1ccc(Cl)nc1)C(=O)c1ccc(C[C@@H]2CC[C@H]([C@H](O)c3ccccc3)N2)cc1 [Example 30-B, N-((6-chloropyridin-3-yl)methyl)-4-(((2S,5R)-5-((R)-hydroxy(phenyl)methyl)pyrrolidin-2-yl)methyl)-N-methylbenzamide] | – | 100 | 28 | 8.9 |
| CN(Cc1ccc(Cl)nc1)C(=O)c1ccc(C[C@@H]2CC[C@H]([C@H](O)c3ccc(F)cc3)N2)cc1 [Example 30-F, N-((6-chloropyridin-3-yl)methyl)-4-(((2S,5R)-5-((R)-(4-fluorophenyl)(hydroxy)methyl)pyrrolidin-2-yl)methyl)-N-methylbenzamide] | – | 101 | 78 | 24.4 |
| CC(O)c1cncc(CN(C)C(=O)c2ccc(C[C@@H]3CC[C@H]([C@H](O)c4ccc(Cl)nc4)N3)cc2)c1 (stereo partly drawn) [Example 31-A, (((2S,5R)-5-((R)-(6-chloropyridin-3-yl)(hydroxy)methyl)pyrrolidin-2-yl)methyl)-N-((5-(1-hydroxyethyl)pyridin-3-yl)methyl)-N-methylbenzamide] | – | 96 | 7 | – |
| CC(O)c1cncc(CN(C)C(=O)c2ccc(C[C@@H]3CC[C@H]([C@H](O)c4ccccc4)N3)cc2)c1 (stereo partly drawn) [Example 31-B, 4-(((2S,5R)-5-((R)-hydroxy(phenyl)methyl)pyrrolidin-2-yl)methyl)-N-((5-(1-hydroxyethyl)pyridin-3-yl)methyl)-N-methylbenzamide] | – | 104 | 16 | 2.3 |
| CN(Cc1cncc(C(C)(C)O)c1)C(=O)c1ccc(C[C@@H]2CC[C@H]([C@H](O)c3ccc(Cl)nc3)N2)cc1 [Example 32-A, 4-(((2S,5R)-5-((R)-(6-chloropyridin-3-yl)(hydroxy)methyl)pyrrolidin-2-yl)methyl)-N-((5-(2-hydroxypropan-2-yl)pyridin-3-yl)methyl)-N-methylbenzamide] | – | 94 | 13 | – |
| CN(Cc1cncc(C(C)(C)O)c1)C(=O)c1ccc(C[C@@H]2CC[C@H]([C@H](O)c3ccccc3)N2)cc1 [Example 32-B, 4-(((2S,5R)-5-((R)-hydroxy(phenyl)methyl)pyrrolidin-2-yl)methyl)-N-((5-(2-hydroxypropan-2-yl)pyridin-3-yl)methyl)-N-methylbenzamide] | – | 109 | 22 | 1.8 |
